Data taken from ChEMBL document CHEMBL4376833, “Influence of Non-natural Cationic Amino Acids on the Biological Activity Profile of Innate Defense Regulator Peptides” (J Med Chem, 2019).
≈ marks a conversion by molar mass, not a printed value. Calls of active or inactive are those of the source. Unless noted, the rule behind the calls is not given here. Non-standard residues stand in square brackets, D forms with d. Residues, ends and D or L forms follow the SMILES beside them. Agb = N=C(N)NCC[C@H](N)C(=O)O; Agp = N=C(N)NC[C@H](N)C(=O)O; Orn = NCCC[C@H](N)C(=O)O; Dab = NCC[C@H](N)C(=O)O; Dap = NC[C@H](N)C(=O)O

Tests used:
Staphylococcus aureus [1] = test: Antibacterial activity against methicillin-resistant Staphylococcus aureus assessed as bacterial growth inhibition in TSB medium supplemented with 1% glucose measured after overnight incubation by CLSI protocol based broth dilution method; assay type: functional, organism-based
Staphylococcus aureus [2] = test: Antibacterial activity against methicillin-resistant Staphylococcus aureus assessed as bacterial growth inhibition in MHB medium measured after overnight incubation by CLSI protocol based broth dilution method; assay type: functional
[3] = Binding affinity to DPC micelle assessed as blue shift with maximum fluorescence emission at 1 uM in TRIS buffer at pH 7.4 measured after 24 hrs by Trp emission fluorescence spectroscopy
Staphylococcus aureus [4] = test: Antibiofilm activity against methicillin-resistant Staphylococcus aureus assessed as inhibition of biofilm formation incubated for overnight by crystal violet staining based microtiter plate assay; assay type: functional, organism-based
[5] = Binding affinity to SDS micelle assessed as increase in fluorescence emission intensity at maximum wavelength at 1 uM in TRIS buffer at pH 7.4 measured after 24 hrs by Trp emission fluorescence spectroscopy relative to TRIS buffer
PBMC [6] = test: Immunostimulatory activity in human PBMC assessed as induction of chemokine MCP1 production at 10 to 40 uM incubated for overnight by ELISA; assay type: functional, cell-based
Staphylococcus aureus [7] = test: Antibacterial activity against methicillin-resistant Staphylococcus aureus assessed as alteration in bacterial growth in TSB medium supplemented with 1% glucose up to 64 uM measured after overnight incubation by CLSI protocol based broth dilution method; assay type: functional, organism-based
PBMC [8] = test: Cytotoxicity against human PBMC assessed as decrease in cell viability at 10 to 40 uM incubated for overnight by LDH assay; assay type: cell-based
Staphylococcus aureus [9] = test: Antibacterial activity against methicillin-resistant Staphylococcus aureus assessed as alteration in bacterial growth in TSB medium supplemented with 1% glucose at concentration of MIC in MHB medium measured after overnight incubation by CLSI protocol based broth dilution method; assay type: functional, organism-based
[10] = Binding affinity to DPC micelle assessed as increase in fluorescence emission intensity at maximum wavelength at 1 uM in TRIS buffer at pH 7.4 measured after 24 hrs by Trp emission fluorescence spectroscopy relative to TRIS buffer
PBMC [11] = test: Proinflammatory activity in human PBMC assessed as increase in LPS-stimulated IL1 production at 40 uM incubated for overnight in presence nof Pseudomonas aeruginosa PAO1 LPS by ELISA; assay type: cell-based
[12] = Binding affinity to SDS micelle assessed as blue shift with maximum emission at wavelength between 339 to 344 nm at 1 uM in TRIS buffer at pH 7.4 measured after 24 hrs by Trp emission fluorescence spectroscopy
PBMC [13] = test: Antiinflammatory activity against LPS-stimulated human PBMC assessed as suppression of IL1 production at 10 to 40 uM incubated for overnight in presence of Pseudomonas aeruginosa PAO1 LPS by ELISA; assay type: functional, cell-based
Staphylococcus aureus [14] = test: Antibiofilm activity against methicillin-resistant Staphylococcus aureus assessed as inhibition of biofilm formation by measuring residual biofilm growth incubated for overnight at 10-fold dilution by crystal violet staining based microtiter plate assay relative to control; assay type: functional
[15] = Stability of compound assessed as bovine trypsin-mediated compound hydrolysis at 10 uM incubated for 30 mins by RP-HPLC analysis; assay type: ADME, Bos taurus; conditions: cattle, read-out: Drug degradation
Staphylococcus aureus [16] = test: Antibacterial activity against methicillin-resistant Staphylococcus aureus assessed as alteration in bacterial growth incubated for overnight by microtiter plate based spectrophotometric analysis; assay type: functional, organism-based

## CC[C@H](C)[C@H](NC(=O)[C@H](CCCN)NC(=O)[C@@H](NC(=O)[C@H](C)NC(=O)[C@@H](NC(=O)[C@@H](NC(=O)[C@H](CC(C)C)NC(=O)[C@H](CCCN)NC(=O)[C@@H](N)C(C)C)[C@@H](C)CC)C(C)C)C(C)C)C(=O)N[C@@H](Cc1c[nH]c2ccccc12)C(=O)N[C@@H](CCCN)C(=O)N[C@@H](CCCN)C(N)=O (H-V[Orn]LIVAV[Orn]IW[Orn][Orn]-NH2)
Staphylococcus aureus [1]
  inhibition: inactive
Staphylococcus aureus [2]
  MIC: 8 µM (≈ 10.9 µg/mL)
[3]
  Activity: Active
Staphylococcus aureus [4]
  IC50: 32 µM
[5]
  Activity: inactive
PBMC [6]
  Activity: Active
Staphylococcus aureus [7]
  Activity: Active
PBMC [8]
  Activity: Non-Toxic
Staphylococcus aureus [9]
  Activity: Active
[10]
  fold change (FC): 2 to 6
PBMC [11]
  Activity: Toxic
[12]
  Activity: Active

## H-VRLIVKVRIWRR-NH2
PBMC [13]
  Activity: Active
Staphylococcus aureus [1]
  inhibition: inactive
Staphylococcus aureus [2]
  MIC: 4 µM
[3]
  Activity: Active
Staphylococcus aureus [14]
  residual biofilm growth (% of control): 6.1%
Staphylococcus aureus [4]
  IC50: 4 to 6 µM
  inhibition: Dose-dependent effect
[5]
  fold change (FC): 2.5
PBMC [6]
  Activity: inactive
Staphylococcus aureus [7]
  Activity: Active
PBMC [8]
  Activity: Non-Toxic
[15]
  metabolised at 0.5 h, 10 µM: 60%
Staphylococcus aureus [9]
  Activity: Active
[10]
  fold change (FC): 2 to 6
[12]
  Activity: Active
Staphylococcus aureus [16]
  Activity: Active

## CC[C@H](C)[C@H](NC(=O)[C@H](CCCNC(=N)N)NC(=O)[C@H](CCCN)NC(=O)[C@H](C)NC(=O)[C@@H](NC(=O)[C@@H](NC(=O)[C@H](CC(C)C)NC(=O)[C@H](CCCNC(=N)N)NC(=O)[C@@H](N)C(C)C)[C@@H](C)CC)C(C)C)C(=O)N[C@@H](Cc1c[nH]c2ccccc12)C(=O)N[C@@H](CCCNC(=N)N)C(=O)N[C@@H](CCCNC(=N)N)C(N)=O (H-VRLIVA[Orn]RIWRR-NH2)
Staphylococcus aureus [14]
  residual biofilm growth (% of control): 103%
Staphylococcus aureus [4]
  inhibition: Dose-dependent effect
Staphylococcus aureus [16]
  Activity: Active

## CC[C@H](C)[C@H](NC(=O)[C@H](CCCNC(=N)N)NC(=O)[C@@H](NC(=O)[C@H](CCN)NC(=O)[C@@H](NC(=O)[C@@H](NC(=O)[C@H](CC(C)C)NC(=O)[C@H](CCCNC(=N)N)NC(=O)[C@@H](N)C(C)C)[C@@H](C)CC)C(C)C)C(C)C)C(=O)N[C@@H](Cc1c[nH]c2ccccc12)C(=O)N[C@@H](CCCNC(=N)N)C(=O)N[C@@H](CCCNC(=N)N)C(N)=O (H-VRLIV[Dab]VRIWRR-NH2)
Staphylococcus aureus [14]
  residual biofilm growth (% of control): 52.7%
Staphylococcus aureus [4]
  inhibition: Dose-dependent effect
Staphylococcus aureus [16]
  Activity: Active

## H-RRLIVAVRIWRR-NH2
Staphylococcus aureus [14]
  residual biofilm growth (% of control): 12.2%
Staphylococcus aureus [4]
  inhibition: Dose-dependent effect
Staphylococcus aureus [16]
  Activity: Active

## H-VRRIVAVRIWRR-NH2
Staphylococcus aureus [14]
  residual biofilm growth (% of control): 83.7%
Staphylococcus aureus [4]
  inhibition: Dose-dependent effect
Staphylococcus aureus [16]
  Activity: Active

## CC[C@H](C)[C@H](NC(=O)[C@H](CCCN)NC(=O)[C@@H](NC(=O)[C@H](C)NC(=O)[C@@H](NC(=O)[C@@H](NC(=O)[C@H](CC(C)C)NC(=O)[C@H](CCCNC(=N)N)NC(=O)[C@@H](N)C(C)C)[C@@H](C)CC)C(C)C)C(C)C)C(=O)N[C@@H](Cc1c[nH]c2ccccc12)C(=O)N[C@@H](CCCNC(=N)N)C(=O)N[C@@H](CCCNC(=N)N)C(N)=O (H-VRLIVAV[Orn]IWRR-NH2)
Staphylococcus aureus [14]
  residual biofilm growth (% of control): 14%
Staphylococcus aureus [4]
  inhibition: Dose-dependent effect
Staphylococcus aureus [16]
  Activity: Active

## CC[C@H](C)[C@H](NC(=O)[C@H](CCCNC(=N)N)NC(=O)[C@@H](NC(=O)[C@H](C)NC(=O)[C@@H](NC(=O)[C@@H](NC(=O)[C@H](CC(C)C)NC(=O)[C@H](CCCNC(=N)N)NC(=O)[C@@H](N)CNC(=N)N)[C@@H](C)CC)C(C)C)C(C)C)C(=O)N[C@@H](Cc1c[nH]c2ccccc12)C(=O)N[C@@H](CCCNC(=N)N)C(=O)N[C@@H](CCCNC(=N)N)C(N)=O (H-[Agp]RLIVAVRIWRR-NH2)
Staphylococcus aureus [14]
  residual biofilm growth (% of control): 10.6%
Staphylococcus aureus [4]
  inhibition: Dose-dependent effect
Staphylococcus aureus [16]
  Activity: Active

## CC[C@H](C)[C@H](NC(=O)[C@H](CCCNC(=N)N)NC(=O)[C@@H](NC(=O)[C@H](C)NC(=O)[C@@H](NC(=O)[C@@H](NC(=O)[C@H](CC(C)C)NC(=O)[C@H](CNC(=N)N)NC(=O)[C@@H](N)C(C)C)[C@@H](C)CC)C(C)C)C(C)C)C(=O)N[C@@H](Cc1c[nH]c2ccccc12)C(=O)N[C@@H](CCCNC(=N)N)C(=O)N[C@@H](CCCNC(=N)N)C(N)=O (H-V[Agp]LIVAVRIWRR-NH2)
Staphylococcus aureus [14]
  residual biofilm growth (% of control): 28.3%
Staphylococcus aureus [4]
  inhibition: Dose-dependent effect
Staphylococcus aureus [16]
  Activity: Active

## CC[C@H](C)[C@H](NC(=O)[C@H](CCCNC(=N)N)NC(=O)[C@H](CCNC(=N)N)NC(=O)[C@H](C)NC(=O)[C@@H](NC(=O)[C@@H](NC(=O)[C@H](CC(C)C)NC(=O)[C@H](CCCNC(=N)N)NC(=O)[C@@H](N)C(C)C)[C@@H](C)CC)C(C)C)C(=O)N[C@@H](Cc1c[nH]c2ccccc12)C(=O)N[C@@H](CCCNC(=N)N)C(=O)N[C@@H](CCCNC(=N)N)C(N)=O (H-VRLIVA[Agb]RIWRR-NH2)
Staphylococcus aureus [14]
  residual biofilm growth (% of control): 104.1%
Staphylococcus aureus [4]
  inhibition: Dose-dependent effect
Staphylococcus aureus [16]
  Activity: Active

## H-VRLIVAVRIWKR-NH2
Staphylococcus aureus [14]
  residual biofilm growth (% of control): 11.8%
Staphylococcus aureus [4]
  inhibition: Dose-dependent effect
Staphylococcus aureus [16]
  Activity: Active

## CC[C@H](C)[C@H](NC(=O)[C@H](CN)NC(=O)[C@@H](NC(=O)[C@H](CN)NC(=O)[C@@H](NC(=O)[C@@H](NC(=O)[C@H](CC(C)C)NC(=O)[C@H](CN)NC(=O)[C@@H](N)C(C)C)[C@@H](C)CC)C(C)C)C(C)C)C(=O)N[C@@H](Cc1c[nH]c2ccccc12)C(=O)N[C@@H](CN)C(=O)N[C@@H](CN)C(N)=O (H-V[Dap]LIV[Dap]V[Dap]IW[Dap][Dap]-NH2)
PBMC [13]
  Activity: inactive
Staphylococcus aureus [1]
  inhibition: inactive
Staphylococcus aureus [2]
  MIC: 8 µM (≈ 10.2 µg/mL)
[3]
  Activity: Active
Staphylococcus aureus [4]
  IC50: 19.6 µM
[5]
  Activity: inactive
PBMC [6]
  Activity: inactive
Staphylococcus aureus [7]
  Activity: Active
PBMC [8]
  Activity: Non-Toxic
[15]
  metabolised at 0.5 h, 10 µM: 14%
Staphylococcus aureus [9]
  Activity: Active
[10]
  fold change (FC): 2 to 6
[12]
  Activity: Active

## CC[C@H](C)[C@H](NC(=O)[C@H](CCCNC(=N)N)NC(=O)[C@@H](NC(=O)[C@H](C)NC(=O)[C@@H](NC(=O)[C@H](CCN)NC(=O)[C@H](CC(C)C)NC(=O)[C@H](CCCNC(=N)N)NC(=O)[C@@H](N)C(C)C)C(C)C)C(C)C)C(=O)N[C@@H](Cc1c[nH]c2ccccc12)C(=O)N[C@@H](CCCNC(=N)N)C(=O)N[C@@H](CCCNC(=N)N)C(N)=O (H-VRL[Dab]VAVRIWRR-NH2)
Staphylococcus aureus [14]
  residual biofilm growth (% of control): 103.3%
Staphylococcus aureus [4]
  inhibition: Dose-dependent effect
Staphylococcus aureus [16]
  Activity: Active

## CC[C@H](C)[C@H](NC(=O)[C@H](CNC(=N)N)NC(=O)[C@@H](NC(=O)[C@H](C)NC(=O)[C@@H](NC(=O)[C@@H](NC(=O)[C@H](CC(C)C)NC(=O)[C@H](CCCNC(=N)N)NC(=O)[C@@H](N)C(C)C)[C@@H](C)CC)C(C)C)C(C)C)C(=O)N[C@@H](Cc1c[nH]c2ccccc12)C(=O)N[C@@H](CCCNC(=N)N)C(=O)N[C@@H](CCCNC(=N)N)C(N)=O (H-VRLIVAV[Agp]IWRR-NH2)
Staphylococcus aureus [14]
  residual biofilm growth (% of control): 102.2%
Staphylococcus aureus [4]
  inhibition: Dose-dependent effect
Staphylococcus aureus [16]
  Activity: Active

## CC[C@H](C)[C@H](NC(=O)[C@H](CCCNC(=N)N)NC(=O)[C@@H](NC(=O)[C@H](C)NC(=O)[C@@H](NC(=O)[C@@H](NC(=O)[C@H](CC(C)C)NC(=O)[C@H](CCCNC(=N)N)NC(=O)[C@@H](N)C(C)C)[C@@H](C)CC)C(C)C)C(C)C)C(=O)N[C@@H](CCNC(=N)N)C(=O)N[C@@H](CCCNC(=N)N)C(=O)N[C@@H](CCCNC(=N)N)C(N)=O (H-VRLIVAVRI[Agb]RR-NH2)
Staphylococcus aureus [14]
  residual biofilm growth (% of control): 103.7%
Staphylococcus aureus [4]
  inhibition: Dose-dependent effect
Staphylococcus aureus [16]
  Activity: Active

## H-VRLIVRVRIWRR-NH2
PBMC [13]
  Activity: Active
Staphylococcus aureus [1]
  inhibition: inactive
Staphylococcus aureus [2]
  MIC: 2 µM
[3]
  Activity: Active
Staphylococcus aureus [14]
  residual biofilm growth (% of control): 9.2%
Staphylococcus aureus [4]
  IC50: 4 to 6 µM
  inhibition: Dose-dependent effect
[5]
  Activity: inactive
PBMC [6]
  Activity: Active
Staphylococcus aureus [7]
  Activity: Active
PBMC [8]
  Activity: Non-Toxic
[15]
  metabolised at 0.5 h, 10 µM: 90%
Staphylococcus aureus [9]
  Activity: Active
[10]
  fold change (FC): 2 to 6
[12]
  Activity: Active
Staphylococcus aureus [16]
  Activity: Active
